Laboratory results from the NIST ThermoML archive (doi:10.1021/acs.jced.8b00715).
Numbers after ± are expanded uncertainties.

Assays:
[1] = wn = mass fraction of the nth substance listed; settings: 298.15 K, 100 kPa, Liquid, Vibrating tube method
[2] = refractive index (Na D-line) (dimensionless); wn = mass fraction of the nth substance listed; settings: 298.15 K, 100 kPa, Liquid, Standard Abbe refractometry

Compound `O=S(=O)([O-])[O-].[Na+].[Na+]` [sodium sulfate] + O has a mass density ([1]; w1 = 0.219) of 1204.85 ± 14 kg/m3 and a refractive index ([2]; w1 = 0.219) of 1.3626 ± 0.002.
With `O=B[O-].[Na+]` [sodium metaborate] + O the mass density ([1]; w1 = 0.2259) was 1267.8 ± 1.1 kg/m3 and the refractive index ([2]; w1 = 0.2259) was 1.3872 ± 0.0007.
In the case of `[Cl-].[Na+]` [sodium chloride] + O, the mass density ([1]; w1 = 0.2645) is reported as 1198.1 ± 5.6 kg/m3 and the refractive index ([2]; w1 = 0.2645) is reported as 1.3796 ± 0.0015.
